Literature values as cited in patent US10711094B2, “Conjugated polymer nanoparticles, methods of using, and methods of making” (KING ABDULLAH UNIVERSITY OF SCIENCE AND TECHNOLOGY, priority 2015, dated 2020).

Settings: in ethanol

In the case of `O=C(O)c1ccccc1C1=c2cc3c4c(c2Oc2c1cc1c5c2CCCN5CCC1)CCC[N+]=4CCC3.[Cl-]` [Rhodamine 101], the “fluorescence quantum yield (Φfl) of reference dye” value is given as 96%.
